Laboratory results reported in the supplement of paper PMC10307832.

Experiments:
Test in all cases: relative viability (nuclei count vs DMSO), 5 days (fraction); higher = more cells survive
[1] = compound: C1CNCCC1C2=CC(=NN2)C3=CC=NC=C3 + Nc1nc2[nH]cc(CCc3ccc(C(=O)N[C@@H](CCC(=O)O)C(=O)O)cc3)c2c(=O)[nH]1 [Pemetrexed] (partner 0.2 µM)
In short: (§1)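 Values are medians from duplicate plates. Each reflects relative viability, defined as the nuclei count of treated wells over that of vehicle wells. Lung cancer cell lines in 1536-well plates were pin-tool dosed one day after seeding with one drug alone or with a fixed anchor-drug dose plus five library-drug doses (not always all listed) in √10 steps, then fixed, stained and imaged at 4× after 5 days.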

[2] = compound: C[C@@H](N)c1ccc(C(=O)Nc2ccnc3[nH]ccc23)cc1 + NC(=O)Nc1cc(-c2cccc(F)c2)sc1C(=O)N[C@H]1CCCNC1 [AZD7762] (partner 0.2 µM)
In short: as §1

Tanzisertib + Foretinib = compound: O[C@H]1CC[C@H](Nc2ncc3nc(Nc4c(F)cc(F)cc4F)n([C@H]4CCOC4)c3n2)CC1 [Tanzisertib] + COc1cc2c(Oc3ccc(NC(=O)C4(C(=O)Nc5ccc(F)cc5)CC4)cc3F)ccnc2cc1OCCCN1CCOCC1 [Foretinib] (partner 0.25 µM)
In short: as §1

Tanzisertib + Dasatinib = compound: O[C@H]1CC[C@H](Nc2ncc3nc(Nc4c(F)cc(F)cc4F)n([C@H]4CCOC4)c3n2)CC1 [Tanzisertib] + Cc1nc(Nc2ncc(C(=O)Nc3c(C)cccc3Cl)s2)cc(N2CCN(CCO)CC2)n1 [Dasatinib] (partner 0.075 µM)
In short: as §1

Cell Line: EMC-BAC-2
- relative viability ([1]; first compound 0.08 µM): 0.464
- relative viability ([1]; first compound 0.8 µM): 0.448
- relative viability ([1]; first compound 2.53 µM): 0.435
- relative viability ([1]; first compound 8 µM): 0.439
- relative viability ([2]; first compound 0.04 µM): 0.946
- relative viability ([2]; first compound 0.1265 µM): 1.09
- relative viability ([2]; first compound 0.4 µM): 1.17
- relative viability ([2]; first compound 1.265 µM): 1.03
- relative viability ([2]; first compound 4 µM): 0.895
- relative viability (Tanzisertib + Foretinib; first compound 0.08 µM): 1.04
- relative viability (Tanzisertib + Foretinib; first compound 0.253 µM): 0.937
- relative viability (Tanzisertib + Foretinib; first compound 0.8 µM): 0.988
- relative viability (Tanzisertib + Foretinib; first compound 2.53 µM): 0.969
- relative viability (Tanzisertib + Foretinib; first compound 8 µM): 0.966
- relative viability (Tanzisertib + Dasatinib; first compound 0.08 µM): 0.315
- relative viability (Tanzisertib + Dasatinib; first compound 0.253 µM): 0.321
- relative viability (Tanzisertib + Dasatinib; first compound 0.8 µM): 0.328
- relative viability (Tanzisertib + Dasatinib; first compound 2.53 µM): 0.351
- relative viability (Tanzisertib + Dasatinib; first compound 8 µM): 0.299

Cell Line: LCLC-103H
- relative viability ([1]; first compound 0.08 µM): 0.492
- relative viability ([1]; first compound 0.8 µM): 0.5
- relative viability ([1]; first compound 2.53 µM): 0.493
- relative viability ([1]; first compound 8 µM): 0.487
- relative viability ([2]; first compound 0.04 µM): 0.709
- relative viability ([2]; first compound 0.1265 µM): 0.77
- relative viability ([2]; first compound 0.4 µM): 0.757
- relative viability ([2]; first compound 1.265 µM): 0.658
- relative viability ([2]; first compound 4 µM): 0.522
- relative viability (Tanzisertib + Foretinib; first compound 0.08 µM): 0.79
- relative viability (Tanzisertib + Foretinib; first compound 0.253 µM): 0.784
- relative viability (Tanzisertib + Foretinib; first compound 0.8 µM): 0.806
- relative viability (Tanzisertib + Foretinib; first compound 2.53 µM): 0.71
- relative viability (Tanzisertib + Foretinib; first compound 8 µM): 0.765
- relative viability (Tanzisertib + Dasatinib; first compound 0.08 µM): 0.496
- relative viability (Tanzisertib + Dasatinib; first compound 0.253 µM): 0.466
- relative viability (Tanzisertib + Dasatinib; first compound 0.8 µM): 0.427
- relative viability (Tanzisertib + Dasatinib; first compound 2.53 µM): 0.402
- relative viability (Tanzisertib + Dasatinib; first compound 8 µM): 0.468

Cell Line: LK-2
- relative viability ([1]; first compound 0.8 µM): 0.263
- relative viability ([1]; first compound 2.53 µM): 0.295
- relative viability ([1]; first compound 8 µM): 0.267
- relative viability ([2]; first compound 0.04 µM): 0.493
- relative viability ([2]; first compound 0.1265 µM): 0.385
- relative viability ([2]; first compound 0.4 µM): 0.603
- relative viability ([2]; first compound 1.265 µM): 0.434
- relative viability ([2]; first compound 4 µM): 0.621
- relative viability (Tanzisertib + Foretinib; first compound 0.08 µM): 1.26
- relative viability (Tanzisertib + Foretinib; first compound 0.253 µM): 1.01
- relative viability (Tanzisertib + Foretinib; first compound 0.8 µM): 1.11
- relative viability (Tanzisertib + Foretinib; first compound 2.53 µM): 1.03
- relative viability (Tanzisertib + Foretinib; first compound 8 µM): 1.46
- relative viability (Tanzisertib + Dasatinib; first compound 0.08 µM): 0.281
- relative viability (Tanzisertib + Dasatinib; first compound 0.253 µM): 0.287
- relative viability (Tanzisertib + Dasatinib; first compound 0.8 µM): 0.318
- relative viability (Tanzisertib + Dasatinib; first compound 2.53 µM): 0.28
- relative viability (Tanzisertib + Dasatinib; first compound 8 µM): 0.207

Cell Line: NCI-H2405
- relative viability ([1]; first compound 0.08 µM): 1.05
- relative viability ([1]; first compound 0.8 µM): 1.1
- relative viability ([1]; first compound 2.53 µM): 1.11
- relative viability ([1]; first compound 8 µM): 1
- relative viability ([2]; first compound 0.1265 µM): 0.702
- relative viability ([2]; first compound 0.4 µM): 0.438
- relative viability ([2]; first compound 1.265 µM): 0.253
- relative viability ([2]; first compound 4 µM): 0.179
- relative viability (Tanzisertib + Foretinib; first compound 0.08 µM): 1.1
- relative viability (Tanzisertib + Foretinib; first compound 0.253 µM): 1.08
- relative viability (Tanzisertib + Foretinib; first compound 0.8 µM): 1.07
- relative viability (Tanzisertib + Foretinib; first compound 2.53 µM): 1.17
- relative viability (Tanzisertib + Foretinib; first compound 8 µM): 1.03
- relative viability (Tanzisertib + Dasatinib; first compound 0.08 µM): 0.228
- relative viability (Tanzisertib + Dasatinib; first compound 0.253 µM): 0.225
- relative viability (Tanzisertib + Dasatinib; first compound 0.8 µM): 0.195
- relative viability (Tanzisertib + Dasatinib; first compound 2.53 µM): 0.227
- relative viability (Tanzisertib + Dasatinib; first compound 8 µM): 0.188

Cell Line: NCI-H2087
- relative viability ([1]; first compound 0.08 µM): 0.722
- relative viability ([1]; first compound 0.8 µM): 0.679
- relative viability ([1]; first compound 2.53 µM): 0.635
- relative viability ([1]; first compound 8 µM): 0.666
- relative viability ([2]; first compound 0.04 µM): 1.29
- relative viability ([2]; first compound 0.1265 µM): 1.06
- relative viability ([2]; first compound 0.4 µM): 1.07
- relative viability ([2]; first compound 1.265 µM): 1.06
- relative viability ([2]; first compound 4 µM): 1.08
- relative viability (Tanzisertib + Foretinib; first compound 0.08 µM): 1.23
- relative viability (Tanzisertib + Foretinib; first compound 0.253 µM): 0.992
- relative viability (Tanzisertib + Foretinib; first compound 0.8 µM): 1.12
- relative viability (Tanzisertib + Foretinib; first compound 2.53 µM): 1.06
- relative viability (Tanzisertib + Foretinib; first compound 8 µM): 1.09
- relative viability (Tanzisertib + Dasatinib; first compound 0.08 µM): 0.842
- relative viability (Tanzisertib + Dasatinib; first compound 0.253 µM): 0.876
- relative viability (Tanzisertib + Dasatinib; first compound 0.8 µM): 0.77
- relative viability (Tanzisertib + Dasatinib; first compound 2.53 µM): 0.967
- relative viability (Tanzisertib + Dasatinib; first compound 8 µM): 0.686
